“Also recorded” adds a separate entry of the source.
Tests used:
ELT3 cells [1] = assay: Circulating and lung tumor cell DNA by rat-specific real-time PCR; type: in vivo, mice
Method: (§1) All animal work was performed in accordance with a protocol approved by the FCCC Institutional Animal Care and Use Committee. Male CB-17 scid mice, six weeks of age, were purchased from Fox Chase Cancer Center. Female ovariectomized CB17-scid mice, six to eight weeks of age, were purchased from Taconic (Hudson, N.Y.). One week prior to cell injection, 17-beta estradiol or control-placebo pellets (2.5 mg, 90-day release) (Innovative Research America, Sarasota, Fla.) were implanted. For xenograft tumor establishment, subconfluent ELT3 cells were harvested, washed in PBS, and resuspended in 0.2 ml of serum-free medium. Two millions ELT3 cells were injected into both flanks of the mouse subcutaneously. […] Lung metastases were scored from 3-5 five-micron H&E stained sections of each lobe at 40× magnification by observers blinded to the experimental conditions.
Mouse blood (0.5 mL) was collected at indicated times by intraocular bleed, and red blood cells were lysed before DNA extraction. At death, the lungs were dissected and stored at −80° C. for DNA extraction. Rat and mouse DNAs were quantified by using TaqMan-chemistry based real-time PCR assays. […] The primers amplify a LINE repeat element (AC087102). The assay for mouse is for the gene Anf. The sequences (all 5′ to 3′) for the primers and probes are:
PCR master mix from Eurogentec was used for PCR. Primers and probe concentrations were 500 and 100 nM, respectively. Cycling conditions were 95° C., 15 minutes followed by 40 (2-steps) cycles (95° C., 15 sec; 60° C., 60 sec). Reactions were run using an ABI 7900 HT instrument. Each sample was analyzed using two different amounts of input DNA. […] Bioluminescent Reporter Imaging

ELT3-luciferase cells = assay: Lung colonization of i.v. injected ELT3-luciferase cells, bioluminescent imaging; type: in vivo, mice
Method: as §1
One million ELT3 cells were transfected with 3 μg of pCMV-Luc (Invitrogen, Carlsbad, Calif.) using Nucleofection reagent (Amaxa, Gaithersburg, Md.). Cells were selected in G418 for 2 weeks, and G418 resistant clones were isolated and examined for luciferase activity.
Ten minutes prior to imaging, animals were injected with luciferin (Xenogen, Alameda, Calif.) (120 mg/kg, i.p.). Bioluminescent signals were recorded at indicated times post cell injection using Xenogen IVIS System (Xenogen). Total photon flux at the chest regions and from the dissected lungs was analyzed.

[2] = test system: tuberin-deficient ELT3 cells; assay: Subcutaneous ELT3 xenograft in CB17-scid mice: primary tumors and pulmonary metastases; type: in vivo
Method: (§2) All animal work was performed in accordance with a protocol approved by the FCCC Institutional Animal Care and Use Committee. Male CB-17 scid mice, six weeks of age, were purchased from Fox Chase Cancer Center. Female ovariectomized CB17-scid mice, six to eight weeks of age, were purchased from Taconic (Hudson, N.Y.). One week prior to cell injection, 17-beta estradiol or control-placebo pellets (2.5 mg, 90-day release) (Innovative Research America, Sarasota, Fla.) were implanted. For xenograft tumor establishment, subconfluent ELT3 cells were harvested, washed in PBS, and resuspended in 0.2 ml of serum-free medium. Two millions ELT3 cells were injected into both flanks of the mouse subcutaneously. For metastatic and circulating tumor cells assays, 2×10^5 ELT3 or ELT3-Luc cells were resuspended in 0.1 ml PBS and injected into the lateral tail vein of mice. Lung metastases were scored from 3-5 five-micron H&E stained sections of each lobe at 40× magnification by observers blinded to the experimental conditions.
CI-1040 (PD184352) was obtained from Pfizer (Ann Arbor, Mich.) and was prepared in a vehicle of 10% Cremophore EL (Sigma), 10% ethanol and 80% water. RAD001 was obtained from Novartis Pharma AG (Basel, Switzerland) and was diluted in double-distilled water. Drug were administered one day post cell inoculation at the following doses: RAD001 (4 mg/kg/day, gavage); CI-1040, (150 mg/kg/day gavage, twice a day)
Subcutaneous tumors were removed from animals upon sacrifice. Tumor weights were recorded, and tumor size was measured in two dimensions with calipers.
ELT3 cells were inoculated subcutaneously into the flanks of ovariectomized CB17-SCID mice, which were supplemented 1 week before with either placebo or E2 pellets (2.5 mg, 90-day release). Tumors arose in 100% of both estrogen and placebo-treated mice. […] The proliferative potential of ELT3 cells in vivo was examined using Ki-67 immunoreactivity.

ELT3 cells [3] = assay: Anoikis assay of ELT3 cells on PolyHEMA (caspase-3, DNA fragmentation, Bim, regrowth); type: cell-based, rat
Method: (§3) Cells were rinsed once in ice-cold PBS and lysed in PTY buffer (50 mM Hepes, pH 7.5, 50 mM NaCl, 5 mM EDTA, 50 mM NaF, 10 mM Na4P2O7, and 1% Triton 100) supplemented with phosphatase inhibitors. Lysates were resolved by SDS-PAGE electrophoresis and transferred onto Immobilon P membranes (Millipore). Cytoplasmic and nuclear fractions were separated using CellLytic Nuclear Extraction Kit (Sigma) before electrophoresis. […] Western blots were developed using horseradish peroxidase-conjugated secondary antibodies and ECL chemiluminescence (Amersham Biosciences).
ELT3 cells were cultured with or without 10 nM E2 in serum-free and phenol red-free medium supplemented with 10% charcoal-stripped FBS for 24 hours. […] Cell death as a function of DNA fragmentation was detected using Cell Death Detection ELISA kit (Roche Diagnostics).
(§4) The surviving cells in suspension were plated in triplicate in 24-well plates and allowed to grow adherently for 24 hours. ^3H-thymidine (1 μCi) was added to the media and the cells were incubated at 37° C. for 6 hours, washed with PBS, and lysed in 0.5 mL of 0.5 N NaOH plus 0.5% SDS. ^3H-thymidine incorporation was measured by scintillation counting.

ELT3 cells [4] = assay: ELT3 cell proliferation in response to E2, 3H-thymidine incorporation; type: cell-based, rat; details: day 5, E2 treatment vs control
Method: (§5) ELT-3 cells (Eker rat uterine leiomyoma-derived smooth muscle cells) were cultured in IIA complete medium (DMEM/F12 basal media including 15% FBS, 0.2 μM hydrocortisone, 10 μU/mL vasopressin, 1×FeSO4, 10 ng/mL EGF, 1×ITS, 0.01 nM triiolythryonine, 0.12% sodium bicarbonate, 1× cholesterol and 1× penicillin/streptomycin) supplemented with 15% FBS. Prior to the in vitro experiments, cells were maintained in media supplemented with 10%-charcoal-stripped FBS for three days and then serum starved for 24 hours in serum-free and phenol red-free medium. E2 (10 nM, Sigma, St. Louis, Mo.) or PD98059 (50 μM, Cell Signaling Technology, Danvers, Mass.) was added to the cells as indicated.
as §4, with “counting. […]” for “counting.”

p42/44 MAPK [5] = assay: Phospho-p42/44 MAPK immunostaining of primary xenograft tumors; type: in vivo, mice; details: placebo 28%
Method: Sections were deparaffinized, incubated overnight with primary antibodies at 4° C. in a humidified chamber and then rinsed and incubated with biotinylated secondary antibodies for 30 minutes at room temperature. Slides were developed using the Broad Spectrum AEC Histostain-Plus (Invitrogen) or Histostain-Plus kit (Invitrogen), and they were counterstained with Gill's hematoxylin.
as §2

ribosomal protein S6 = assay: Immunoblot of phosphorylated ribosomal protein S6 in ELT3 cells; type: cell-based, rat; details: E2 stimulation
Method: as §5
(§6) Cells were rinsed once in ice-cold PBS and lysed in PTY buffer (50 mM Hepes, pH 7.5, 50 mM NaCl, 5 mM EDTA, 50 mM NaF, 10 mM Na4P2O7, and 1% Triton 100) supplemented with phosphatase inhibitors. Lysates were resolved by SDS-PAGE electrophoresis and transferred onto Immobilon P membranes (Millipore). Cytoplasmic and nuclear fractions were separated using CellLytic Nuclear Extraction Kit (Sigma) before electrophoresis. […]

p42/44 MAPK [6] = assay: Immunoblot of phosphorylated p42/44 MAPK in ELT3 cells; type: cell-based, rat
Method: Prior to the in vitro experiments, cells were maintained in media supplemented with 10%-charcoal-stripped FBS for three days and then serum starved for 24 hours in serum-free and phenol red-free medium. E2 (10 nM, Sigma, St. Louis, Mo.) or PD98059 (50 μM, Cell Signaling Technology, Danvers, Mass.) was added to the cells as indicated.
as §3

C-Raf = assay: Immunoblot of phosphorylated C-Raf/Raf-1 in ELT3 cells; type: cell-based, rat; details: E2 stimulation
Method: as §5, §6

[7] = female mice, subset n=4 with primary tumors of similar size
[8] = RAD001 4 mg/kg/day by gavage, 5 days per week, in the presence of estrogen or placebo

Compound: O=C(NOCC1CC1)c1ccc(F)c(F)c1Nc1ccc(I)cc1Cl [CI-1040, 2-(2-chloro-4-iodo-phenylamino)-N-cyclopropylmethoxy-3,4-difluoro-benzamide]
- reduction of levels of circulating ELT3 cells in the blood (ELT3 cells [1]; E2-treated xenograft animals, CI-1040 150 mg/kg/day by gavage): 84%
- decrease of bioluminescence in chest regions, E2 plus CI-1040 vs E2 (ELT3-luciferase cells; 5 h post-cell injection): 55%
- reduction of bioluminescent signals in ex vivo lungs, E2 plus CI-1040 vs E2 (ELT3-luciferase cells; 60 h post-cell injection): 96%
- tumor formation ([2]; CI-1040 150 mg/kg/day by gavage, twice a day, not statistically significant): delayed
- reduction of the size of primary tumors ([2]; E2 animals, CI-1040 150 mg/kg/day by gavage, not statistically significant): 25%
- lung metastases ([2]; mice treated with E2 plus CI-1040 150 mg/kg/day by gavage, 150 mg/kg/day): no lung metastases were detected; also recorded: completely blocked

Compound: 17β-estriadiol [E2]
- DNA fragmentation (ELT3 cells [3]; 10 nM E2, PolyHEMA, at 1 and 24 h, ELISA): significantly reduced
- caspase-3 cleavage (ELT3 cells [3]; 10 nM E2, PolyHEMA, at 6, 16 and 24 h): reduced
- 3H-thymidine incorporation after replating (ELT3 cells [3]; 24 h on PolyHEMA, 24 h after replating on adherent plates): significant increase
- accumulation of Bim (ELT3 cells [3]; after 1 h in detachment conditions): decreased
- phosphorylation of S6K and S6 (ELT3 cells [3]; detachment conditions, E2 stimulation): did not change
- increase in circulating cells (ELT3 cells [1]; 6 h after i.v. injection of 2×10^5 ELT3 cells, vs placebo): 2.5 fold
- increase in lung seeding of ELT3 cells (ELT3 cells [1]; lungs 24 h after i.v. injection, vs placebo): 2 fold
- amount of circulating tumor cell DNA vs placebo (ELT3 cells [1]; xenograft mice, 7 weeks post-cell inoculation, tumors of similar size): striking increase
- increase in 3H-thymidine incorporation (ELT3 cells [4]): 2.8 fold
- percentage of cells with primarily nuclear phospho-MAPK (p42/44 MAPK [5]): 65%
- mTOR activation as measured by ribosomal protein S6 phosphorylation (ribosomal protein S6): does not affect
- bioluminescence in chest regions, higher than placebo (ELT3-luciferase cells; 3 h post-cell injection): 2 fold
- bioluminescence in chest regions, higher than placebo (ELT3-luciferase cells; 24 h post-cell injection): 5 fold
- average number of pulmonary metastases, size-matched subset [2, 7]: 6 metastases/mouse
- mice that developed pulmonary metastases, size-matched subset [2, 7]: Three
- primary tumor size, size-matched subset [2, 7]: 198±20 mm^2
- tumor size relative to placebo-treated animals ([2]; male mice, 8 weeks post-cell inoculation): 2.9 fold
- average number of pulmonary metastases ([2]; male mice, 8 weeks post-inoculation): 14 metastases/mouse
- mice with pulmonary metastases ([2]; male mice, 8 weeks post-inoculation, 10 of 10): 100%
- mice in which tumors arose ([2]; ovariectomized female CB17-SCID mice, E2 pellets 2.5 mg 90-day release): 100%
- average number of pulmonary metastases ([2]; ovariectomized female mice): 15 metastases/mouse
- mice with pulmonary metastases ([2]; ovariectomized female mice, 5 of 9): 56%
- mean tumor area ([2]; ovariectomized female mice, post-inoculation week 8): 287±43 mm^2
- number of Ki-67 positive cells in tumors, higher than placebo ([2]; xenograft tumors, female mice, vs placebo-treated tumors): 17%
- time to induced phosphorylation of p42/44 MAPK (p42/44 MAPK [6]; 10 nM E2): ≤ 15 min
- time to nuclear translocation of phospho-MAPK (p42/44 MAPK [6]; nuclear and cytoplasmic fractions): ≤ 5 min
- time to increased phosphorylation of C-Raf at Ser-338 (C-Raf): ≤ 2 min

Compound: COc1cccc(-c2cc(=O)c3ccccc3o2)c1N [PD98059]
- phosphorylation of S6K (ELT3 cells [3]; 1 h after detachment): decreased
- E2-enhanced survival (3H-thymidine incorporation after replating) (ELT3 cells [3]; 24 h on PolyHEMA then replated, PD98059 treatment): blocked
- estrogen's inhibition of Bim accumulation and caspase-3 cleavage (ELT3 cells [3]; preincubation, after 4 h in detachment conditions): partially blocked
- E2-induced phosphorylation of p42/44 MAPK (p42/44 MAPK [6]; pretreatment with PD98059 (50 μM)): blocked

Compound: CO[C@H]1C[C@@H]2CC[C@@H](C)[C@@](O)(O2)C(=O)C(=O)N2CCCC[C@H]2C(=O)O[C@H]([C@H](C)C[C@@H]2CC[C@@H](OCCO)[C@H](OC)C2)CC(=O)[C@H](C)/C=C(\C)[C@@H](O)[C@@H](OC)C(=O)[C@H](C)C[C@H](C)/C=C/C=C/C=C/1C [RAD001]
- lung metastasis [2, 8]: completely blocked
- primary tumor development [2, 8]: completely blocked

From patent US8530457B2, “Method for the treatment of lymphangioleiomyomatosis (LAM)” (Fox Chase Cancer Center, priority 2008, dated 2013)
